Data from patent US20070218460A1, “Method of Estimating Toxicity of Drug” (TAKEDA PHARMACEUTICAL COMPANY LIMITED, priority 2003, published 2007).

Key:
HepG2 cells [1] = assay: Electron-microscopic examination of PLsis induction potential (myelin-like structure)
Source text: Using 30 kinds of the following commercially available drugs as test compounds, the level of PLsis induction potential was examined with the emergence of an intracellular myelin-like structure or a structure having a high electron density, which is an early image thereof, as an index by electronmicroscopic observation.
HepG2 cells (purchased from ATCC) were exposed to the test compound by a conventional method. HepG2 cells used were of the cell growth phase. The attached HepG2 cells were washed twice with. Dulbecco's phosphate buffered saline (calcium and magnesium salt free; PBS(−))(Dainippon Pharmaceutical Co., Ltd.) containing 0.05 w/v % EDTA, detached with a cell dissociation solution of 0.25 vol % trypsin-1 mmol/L EDTA (Gibco BRL) diluted 2-fold with PBS(−), centrifuged to remove the supernatant, and adjusted to a concentration of 2×10^5 cells/250 μL with a culture medium [Dulbecco's modified Eagle medium (DMEM)(Gibco BRL) supplemented with 50 U/mL penicillin (Gibco BRL)-[…] streptomycin (Gibco BRL) and 5 vol % FBS (Bio whittaker)]. DMSO alone or a culture medium containing the above-mentioned test compound in DMSO solution was dispensed to a well by 250 μL, the above-mentioned cell suspension (250 μL) was added, and cultured in a CO2 incubator (7100; Napco) under an atmosphere of 5% CO2—95% air at 37° C.
After culture for 72 hr, the culture medium was removed, and the cells were fixed with 1 w/v % glutaraldehyde solution. After fixing with 2 w/v % osmic acid for 2 hr by a conventional method and dehydrating with an alcohol series, the cells were embedded in a resin (Quetol 812). Ultrathin slices were prepared and, after electron staining, observed with an electron microscope (H-300; Hitachi) and photographed in 3 or more pictures per each sample (magnification ×5000). The processing after post-fixation was performed by Applied Medical Research.

serpina3 = assay: Real-time quantitative PCR of PLsis marker gene expression; format: cell-based, human; settings: HepG2 cells, 24 hr exposure, relative value, control group = 1.0, GAPDH internal standard, n=3
Description: (§1) Using RNeasy Mini Kit (QIAGEN), total RNA was purified from the cells, and cDNA was synthesized in a 100 μL system using TaqMan Reverse Transcription Reagents (PE Applied Biosystems).
(§2) As the primer for glyceraldehyde-3-phosphoric acid dehydrogenase (GAPDH) and VIC labeled probe, those attached to TaqMan GAPDH Control Reagents (PE Applied Biosystems) were used.
(§3) Using 100 μL of the reaction mixture containing 5 μL of cDNA (1×TaqMan Universal PCR Master Mix (PE Applied Biosystems), 200 nM forward primer, 200 nM reverse primer and 200 nM TaqMan probe), 40 cycles of (1 cycle=95° C., 15 sec; 60° C., 1 min) PCR were performed. PCR and fluorescence detection were performed using ABI PRISM Sequence Detector 7000 (PE Applied Biosystems). As the internal standard, GAPDH was used to amend the measurement values. For the determination of significant difference, t-test was used (n=3).
(§4) For each test compound, the expression variation rate of 12 genes each relative to the control group was determined.

lss = assay: as above; format: cell-based, human; settings: HepG2 cells, 24 hr exposure, relative value, control group = 1.0, GAPDH internal standard, n=3
Description: as §1, §2, §3, §4

slc2a3 = assay: as above; format: cell-based, human; settings: HepG2 cells, 24 hr exposure, relative value, control group = 1.0, GAPDH internal standard, n=3
Description: as §1, §2, §3, §4

depp = assay: as above; format: cell-based, human; settings: HepG2 cells, 24 hr exposure, relative value, control group = 1.0, GAPDH internal standard, n=3
Description: as §1, §2, §3, §4

fabp1 = assay: as above; format: cell-based, human; settings: HepG2 cells, 24 hr exposure, relative value, control group = 1.0, GAPDH internal standard, n=3
Description: as §1, §2, §3, §4

asah1 = assay: as above; format: cell-based, human; settings: HepG2 cells, 24 hr exposure, relative value, control group = 1.0, GAPDH internal standard, n=3
Description: as §1, §2, §3, §4

tagln = assay: as above; format: cell-based, human; settings: HepG2 cells, 24 hr exposure, relative value, control group = 1.0, GAPDH internal standard, n=3
Description: as §1, §2, §3, §4

mgc4171 = assay: as above; format: cell-based, human; settings: HepG2 cells, 24 hr exposure, relative value, control group = 1.0, GAPDH internal standard, n=3
Description: as §1, §2, §3, §4

hpn = assay: as above; format: cell-based, human; settings: HepG2 cells, 24 hr exposure, relative value, control group = 1.0, GAPDH internal standard, n=3
Description: as §1, §2, §3, §4

flj22362 = assay: as above; format: cell-based, human; settings: HepG2 cells, 24 hr exposure, relative value, control group = 1.0, GAPDH internal standard, n=3
Description: as §1, §2, §3, §4

kiaa1001 = assay: as above; format: cell-based, human; settings: HepG2 cells, 24 hr exposure, relative value, control group = 1.0, GAPDH internal standard, n=3
Description: as §1, §2, §3, §4

nr0b2 = assay: as above; format: cell-based, human; settings: HepG2 cells, 24 hr exposure, relative value, control group = 1.0, GAPDH internal standard, n=3
Description: as §1, §2, §3, §4

HepG2 cells [2] = assay: Highest concentration at which cells were viable after 72 hr exposure; format: cell-based, human

SMILES	frequency of appearance of myelin-like structure (HepG2 cells [1])	expression variation rate serpina3 (serpina3)	expression variation rate lss (lss)	expression variation rate slc2a3 (slc2a3)	expression variation rate depp (depp)	expression variation rate fabp1 (fabp1)	expression variation rate asah1 (asah1)	expression variation rate tagln (tagln)	expression variation rate mgc4171 (mgc4171)	expression variation rate hpn (hpn)	expression variation rate flj22362 (flj22362)	expression variation rate kiaa1001 (kiaa1001)	expression variation rate nr0b2 (nr0b2)	addition concentration (highest concentration at which cells survived after 72 hr of culture) (HepG2 cells [2])
C1CCC(C(CC2CCCCN2)C2CCCCC2)CC1 (centres unmarked) [perhexiline]	++	2.50	3.10	0.22	2.55	2.49	3.12	0.26	1.93	2.22	3.42	1.98	2.09	8.3 µmol/L
CC/C(=C(\c1ccccc1)c1ccc(OCCN(C)C)cc1)c1ccccc1 [tamoxifen]	++	2.12	3.01	0.24	2.02	1.90	4.50	0.27	1.60	2.19	1.53	1.85	2.56	8.3 µmol/L
CN[C@H]1CC[C@@H](c2ccc(Cl)c(Cl)c2)c2ccccc21 [sertraline]	++	2.69	3.91	0.14	4.44	4.14	3.08	0.37	1.94	3.07	3.49	2.38	1.79	8.3 µmol/L
Clc1ccccc1CNCC1CCC(CNCc2ccccc2Cl)CC1 (centres unmarked) [AY-9944]	++	1.97	4.78	0.22	3.32	3.16	4.71	0.21	1.63	2.68	1.45	1.68	2.71	8.3 µmol/L
CN(C)CCC=C1c2ccccc2CCc2ccccc21 [amitriptyline]	+++	3.01	1.79	0.22	5.08	2.39	3.10	0.23	2.22	2.20	1.80	2.11	1.64	25 µmol/L
CC1COc2c(N3CCN(C)CC3)c(F)cc3c(=O)c(C(=O)O)cn1c23 (centres unmarked) [ofloxacin]	−	0.82	0.78	0.94	0.79	0.75	1.17	0.74	0.77	0.72	0.68	0.86	0.81	25 µmol/L
CNS(=O)(=O)Cc1ccc2[nH]cc(CCN(C)C)c2c1 [sumatriptan]	−	0.95	1.23	0.99	1.05	1.01	1.35	1.06	0.99	1.16	1.26	1.34	0.63	25 µmol/L
CN(C)CCCN1c2ccccc2Sc2ccc(Cl)cc21 [chlorpromazine]	++	1.94	1.99	0.43	2.95	2.56	1.29	0.65	1.74	1.70	1.70	1.90	1.20	8.3 µmol/L
CC[C@H]1OC(=O)[C@H](C)[C@@H](O[C@H]2C[C@@](C)(OC)[C@@H](O)[C@H](C)O2)[C@H](C)[C@@H](O[C@@H]2O[C@H](C)C[C@H](N(C)C)[C@H]2O)[C@](C)(O)C[C@@H](C)C(=O)[C@H](C)[C@@H](O)[C@]1(C)O [erythromycin]	−	0.85	0.87	0.73	0.71	0.73	0.90	0.85	0.86	0.87	0.92	0.78	0.90	25 µmol/L
CN(C)C/C=C(/c1ccc(Br)cc1)c1cccnc1 [zimelidine]	+	1.95	1.05	0.70	2.67	1.42	2.91	0.59	1.12	1.74	1.71	2.24	1.33	25 µmol/L
